Test results published in PMC7179419 (Molecules, 2020).
Where two headings read alike, the source gives them in different places.

Columns and labels:
[1] = test system: normal murine embryonic fibroblast cell line (BALB/3T3); assay: Antiproliferative assay in vitro (SRB, 72 h), BALB/3T3 normal cells; format: cell-based; details: normal cell line BALB/3T3, 72 h, mean ± SD
Protocol: (§1) For a more accurate evaluation of cytotoxic activity, the effect on normal murine embryonic fibroblast cell line (BALB/3T3) was also tested according to the previously published procedure. Detailed information concerning antiproliferation assay can be found in Supplementary Materials. […]
(§2) The antiproliferative activity
(§3) Four human cancer cell lines and one murine normal cell line were used to evaluate […]
(§4) (A549), human breast adenocarcinoma (MCF-7), human colon adenocarcinoma cell lines sensitive and resistant to doxorubicin (LoVo), respectively, and normal murine embryonic fibroblast cell line (BALB/3T3). The BALB/3T3 cell line was purchased from the American Type Culture Collection (ATCC, Manassas, VA, USA), A549 and MCF-7 cell lines—from European Collection of Authenticated Cell Cultures (Salisbury, UK), LoVo cell line was purchased from the ATCC (ATCC, Manassas, VA, USA). All the cell lines are maintained in the Institute of Immunology and Experimental Therapy (IIET), Wroclaw, Poland. Human lung adenocarcinoma cell line was cultured in mixture of OptiMEM and RPMI 1640 (1:1) medium (IIET, Wroclaw, Poland), supplemented with 5% fetal bovine serum (GE Healthcare, Logan, UT, USA) and 2 mM L-glutamine (Sigma-Aldrich, Merck KGaA, Saint Louis, MO, USA). Human breast adenocarcinoma cell line was cultured in mixture of Eagle medium (IIET, Wroclaw, Poland), supplemented with 10% fetal bovine serum, 2 mM L-glutamine, 8 μg/mL insulin and 1% amino-acids (Sigma-Aldrich, Merck KGaA, Saint Louis, MO, USA).
(§5) Human colon adenocarcinoma cell lines were cultured in mixture of OptiMEM and RPMI 1640 (1:1) medium (IIET, Wroclaw, Poland), supplemented with 5% fetal bovine serum (GE Healthcare, Logan UT, USA), 2 mM L-glutamine, 1 mM sodium pyruvate (Sigma-Aldrich, Merck KGaA, Saint Louis, MO, USA). Murine embryonic fibroblast cells were cultured in […]
(§6) Dulbecco medium (Life Technologies Limited, Paisley, UK), supplemented with 10% fetal bovine serum (GE Healthcare, Logan, UT, USA) and 2 mM glutamine (Sigma-Aldrich, Merck KGaA, Saint Louis, MO, USA). All culture media contained antibiotics: 100 U/mL penicillin and 100 μg/mL streptomycin (Polfa-Tarchomin, Warsaw, Poland). All cell lines were cultured during entire experiment in humid atmosphere at 37 °C and 5% CO2. Cells were tested for mycoplasma contamination by mycoplasma detection kit for conventional […]
(§7) The procedure is repeated every year or in the case of less frequently used lines:
(§8) The Antiproliferative Assays In Vitro
(§9) Twenty-four hours before adding the tested compounds, all cell lines were seeded in 384-well plates (Sarstedt, Nümbrecht, Germany) in appropriate media with 1x103 or 1,5x103

[2] = test system: human breast adenocarcinoma (MCF-7); assay: cells; format: cell-based; details: for IC50: read-out: MCF-7 IC50; for SI (MCF-7): SI = IC50 BALB/3T3 / IC50 MCF-7
Protocol: as §1, §2, §3, §4, §5, §6, §7, §8, §9

[3] = test system: human lung adenocarcinoma (A549); assay: cells; format: cell-based; details: for IC50: A549, 72 h, read-out: A549 IC50; for SI (A549): SI = IC50 BALB/3T3 / IC50 A549
Protocol: as §1, §2, §3, §4, §5, §6, §7, §8, §9

[4] = test system: human colon adenocarcinoma cell line (LoVo); assay: cells; format: cell-based; details: for IC50: LoVo, 72 h, read-out: LoVo IC50; for SI (LoVo): SI = IC50 BALB/3T3 / IC50 LoVo
Protocol: as §1, §2, §3, §4, §5, §6, §7, §8, §9

[5] = test system: tubulin; set-up: method as in PMID 2708333; details: lower affinity relative to colchicine; cited from earlier work

| SMILES | IC50 ([1]; Mus musculus) [nM] | IC50 ([2]; Homo sapiens, MCF7, 72 h) [nM] | SI (MCF-7) [2] | IC50 ([3]; Homo sapiens) [nM] | SI (A549) [3] | IC50 ([4]; Homo sapiens) [nM] | SI (LoVo) [4] | other results |
| --- | --- | --- | --- | --- | --- | --- | --- | --- |
| COc1cc2c(c(OC)c1OC)-c1ccc(OC(C)=O)c(=O)cc1[C@@H](NC(C)=O)CC2 [Compound 2a, Acetyl Ester of Colchiceine] |  |  |  |  |  |  |  | melting point: 120 to 122 °C |
| COc1cc2c(c(O)c1OC)-c1ccc(SC)c(=O)cc1C(NC(C)=O)CC2 (stereo not drawn) [Compound 3, 1-demethylthiocolchicine] | 610 ± 140 | 120 ± 50 | 4.92 | 820 ± 20 | 0.74 | 110 ± 30 |  |  |
| COc1cccc2c1C(=O)c1c(O)c3c(c(O)c1C2=O)C[C@@](O)(C(=O)CO)C[C@@H]3O[C@H]1C[C@H](N)[C@H](O)[C@H](C)O1 [doxorubicin, reference compound] | 40 ± 30 |  | 0.26 |  | 0.25 |  | 0.49 | IC50 ([2]; Homo sapiens, MCF7, MCF-7, 72 h, SRB, mean ± SD): 150 ± 50 nM; IC50 ([3]; Homo sapiens, SRB, mean ± SD): 160 ± 30 nM; IC50 ([4]; Homo sapiens, SRB, mean ± SD): 80 ± 30 nM |
| COc1cc2c(c(OC(=O)c3ccccc3)c1OC)-c1ccc(SC)c(=O)cc1[C@@H](NC(C)=O)CC2 [Compound 4d, Benzyl Ester of 1-demethylthiocolchicine] | 450 ± 230 | 780 ± 220 | 0.58 | 600 ± 310 | 0.75 | 100 ± 80 | 4.71 |  |
| CCOC(=O)Oc1c(OC)c(OC)cc2c1-c1ccc(SC)c(=O)cc1[C@@H](NC(C)=O)CC2 [Compound 4f, Ethyl Carbonate of 1-demethylthiocolchicine] | 1030 ± 200 | 950 ± 200 | 1.09 | 960 ± 130 | 1.08 | 790 ± 160 | 1.31 |  |
| COc1cc2c(c(OC(C)=O)c1OC)-c1ccc(SC)c(=O)cc1C(NC(C)=O)CC2 (stereo not drawn) [Compound 4a, Acetyl Ester of 1-demethylthiocolchicine] | 650 ± 120 | 100 ± 20 |  | 480 ± 150 | 1.36 | 110 ± 20 |  |  |
| N.N.[Cl][Pt][Cl] [cisplatin, reference compound] |  |  | 0.95 |  | 0.81 |  | 0.77 | IC50 [1]: 2910 ± 1830 nM; IC50 ([2]; MCF-7, 72 h, SRB, mean ± SD): 3050 ± 670 nM; IC50 ([3]; SRB, mean ± SD): 3600 ± 250 nM; IC50 ([4]; SRB, mean ± SD): 3800 ± 280 nM |
| CCC(=O)Oc1c(OC)c(OC)cc2c1-c1ccc(SC)c(=O)cc1[C@@H](NC(C)=O)CC2 [Compound 4b, Propionyl Ester of 1-demethylthiocolchicine] | 750 ± 100 | 960 ± 130 |  | 970 ± 40 |  |  |  |  |
| COc1cc2c(c(OC)c1OC)-c1ccc(OC(=O)C(C)C)c(=O)cc1[C@@H](NC(C)=O)CC2 [Compound 2c, Isobutyryl Ester of Colchiceine] |  |  |  |  |  |  |  | melting point: 123 to 125 °C |
| COC(=O)Oc1c(OC)c(OC)cc2c1-c1ccc(SC)c(=O)cc1C(NC(C)=O)CC2 (stereo not drawn) [Compound 4e, Methyl Carbonate of 1-demethylthiocolchicine] | 780 ± 60 | 1020 ± 100 | 0.77 | 900 ± 90 | 0.87 | 430 ± 190 | 1.84 |  |
| COc1cc2c(c(OC(=O)C(C)C)c1OC)-c1ccc(SC)c(=O)cc1[C@@H](NC(C)=O)CC2 [Compound 4c, Isobutyryl Ester of 1-demethylthiocolchicine] | 710 ± 30 | 860 ± 100 | 0.83 | 890 ± 70 | 0.80 | 560 ± 60 | 1.27 |  |
| COc1cc2c(c(OC)c1OC)-c1ccc(=O)c(O)cc1[C@@H](NC(C)=O)CC2 [Compound 1, 10-demethylcolchicine] | 10200 ± 960 | 11200 ± 2520 | 0.91 | 13000 ± 1790 | 0.79 | 6000 ± 1880 | 1.71 |  |
| COc1cc2c(c(OC)c1OC)-c1ccc(=O)c(OC)cc1[C@@H](NC(C)=O)CC2 [isocolchicine] |  |  |  |  |  |  |  | affinity for binding to tubulin, times lower than colchicine [5]: 500 times |
